{
  "source": "paper PMC8290231",
  "about": "(Cancer Medicine, 2021)",
  "key": {"[1]": {"tested_on": "FGFR1 signal pathway in Ba/F3‐FGFR1‐V561M", "experiment": "Western blot of FGFR1 signal pathway", "format": "cell-based", "conditions": "300 nM", "description": "(§1) Cells were treated with different concentrations of compound or DMSO for indicated time. Then, cells were lysed with 1 × SDS sample lysis buffer (recommended by CST). […] After blocking with 5% BSA in TBST solution (0.5% Tween‐20) at room temperature for 4 hrs, the membranes were incubated with the corresponding primary antibody (1:2000–1:200) at 4℃ overnight. After washing with TBST for 3–5 times, the HRP‐conjugated secondary antibodies were incubated for 2 hrs. The protein signals were detected with Amersham Imager 600 system (GE, Boston, MA, USA) using an ECL western blotting detection kit (Thermo Fisher Scientific, Waltham, MA, USA).\n(§2) Cell lysates were separated by sodium dodecyl sulfate‐polyacrylamide gel electrophoresis (SDS‐PAGE) and analyzed by western blot for phosphorylated FGFR1, FGFR1, phosphorylated FRS2, FRS2, phosphorylated AKT (Ser473), AKT, phosphorylated Erk, and Erk. GAPDH was used as a control"}, "[2]": {"tested_on": "Ba/F3‐FGFR1‐V561M xenograft", "experiment": "Mouse xenograft tumor model", "format": "in vivo, CB17‐SCID mice", "conditions": "20 mg/kg, p.o., q2d (b60 prints Bid)", "description": "All animal studies were approved by the Institutional Animal Care and Use Committee. Male CB17‐SCID mice were purchased from Vital River Laboratory Animal Technology Inc. (Beijing, China). The right flanks of SCID mice were subcutaneously injected with 2 x 10^6 Ba/F3‐FGFR1, Ba/F3‐FGFR1‐V561F, or Ba/F3‐FGFR1‐V561M cells, respectively. When the average tumor volume reached 100–200 mm^3, mice bearing tumor were randomly divided into groups and treated with compounds or vehicle. All the compounds were suspended in 0.5% CMC‐Na aqueous solution. […] The body weight and tumor volume of animals were measured once every 2 days. Tumor volumes were calculated as L×W×W/2, where L and W are the length and width of the tumor, respectively. At the experiment terminal, tumor tissues were dissected, paraffin embedded, and sectioned for hematoxylin and eosin (H&E), immunohistochemistry (IHC), and TUNEL analysis."}, "[3]": {"biological_target": "FGFR4 (Homo sapiens, UniProt P22455)", "sequence (P22455 22-802)": "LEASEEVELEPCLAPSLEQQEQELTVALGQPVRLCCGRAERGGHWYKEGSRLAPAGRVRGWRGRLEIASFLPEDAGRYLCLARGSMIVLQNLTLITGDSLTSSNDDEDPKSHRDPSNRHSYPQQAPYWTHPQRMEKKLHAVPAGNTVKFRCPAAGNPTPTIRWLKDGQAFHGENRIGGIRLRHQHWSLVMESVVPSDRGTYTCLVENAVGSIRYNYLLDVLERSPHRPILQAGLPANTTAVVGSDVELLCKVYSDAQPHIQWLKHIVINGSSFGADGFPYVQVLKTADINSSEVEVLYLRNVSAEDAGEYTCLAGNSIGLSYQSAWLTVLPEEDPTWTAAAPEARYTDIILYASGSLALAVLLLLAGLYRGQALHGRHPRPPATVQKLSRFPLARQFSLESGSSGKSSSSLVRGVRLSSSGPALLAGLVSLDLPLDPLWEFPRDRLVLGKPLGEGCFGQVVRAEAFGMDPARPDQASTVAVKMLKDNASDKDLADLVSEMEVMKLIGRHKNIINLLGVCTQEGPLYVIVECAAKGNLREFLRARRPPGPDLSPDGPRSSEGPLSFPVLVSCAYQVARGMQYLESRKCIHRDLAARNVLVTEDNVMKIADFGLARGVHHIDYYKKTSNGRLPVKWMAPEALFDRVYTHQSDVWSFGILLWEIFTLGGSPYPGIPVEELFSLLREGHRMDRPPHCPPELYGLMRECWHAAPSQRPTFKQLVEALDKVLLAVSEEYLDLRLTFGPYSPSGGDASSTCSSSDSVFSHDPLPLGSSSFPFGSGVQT", "experiment": "KINOMEscan binding affinity assay"}, "[4]": {"biological_target": "FGFR3 (Homo sapiens, UniProt P22607)", "sequence (P22607 23-806)": "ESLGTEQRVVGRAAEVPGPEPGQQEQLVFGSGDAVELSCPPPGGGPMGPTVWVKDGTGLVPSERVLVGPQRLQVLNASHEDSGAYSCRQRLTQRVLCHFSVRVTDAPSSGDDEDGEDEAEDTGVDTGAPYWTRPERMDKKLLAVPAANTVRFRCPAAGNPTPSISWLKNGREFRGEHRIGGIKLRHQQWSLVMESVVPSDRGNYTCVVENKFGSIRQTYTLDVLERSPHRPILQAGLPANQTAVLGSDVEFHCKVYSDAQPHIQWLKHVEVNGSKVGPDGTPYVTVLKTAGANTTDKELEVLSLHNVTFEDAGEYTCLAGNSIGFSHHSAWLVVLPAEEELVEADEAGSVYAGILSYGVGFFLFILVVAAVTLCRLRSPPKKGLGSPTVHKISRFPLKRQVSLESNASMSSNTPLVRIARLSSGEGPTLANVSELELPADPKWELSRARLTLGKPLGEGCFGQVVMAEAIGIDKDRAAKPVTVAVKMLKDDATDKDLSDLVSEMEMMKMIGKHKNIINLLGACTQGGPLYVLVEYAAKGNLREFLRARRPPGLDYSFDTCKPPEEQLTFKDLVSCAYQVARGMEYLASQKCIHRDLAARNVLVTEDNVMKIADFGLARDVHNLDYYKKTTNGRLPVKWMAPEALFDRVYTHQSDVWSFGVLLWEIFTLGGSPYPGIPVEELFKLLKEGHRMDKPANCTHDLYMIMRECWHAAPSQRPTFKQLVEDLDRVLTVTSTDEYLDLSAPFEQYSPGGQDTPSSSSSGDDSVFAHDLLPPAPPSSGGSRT", "experiment": "KINOMEscan binding affinity assay"}, "[5]": {"tested_on": "FGFR1 in all Ba/F3 stable cells", "experiment": "Western blot of total FGFR1 protein", "format": "cell-based", "conditions": "4 h", "description": "as §1\nHowever, its effects on FGFR1 downstream signal pathway in A549 cells were very weak as a negative control."}, "[6]": {"tested_on": "Ba/F3‐FGFR1", "experiment": "Apoptosis assay by flow cytometry (Annexin V / 7-AAD)", "format": "cell-based", "conditions": "Ba/F3‐FGFR1, 100 nM, 48 h", "description": "After incubation, cells were collected and washed twice with pre‐cold PBS. About 6 × 10^5 cells were resuspended in 100 μl of 1× BD binding buffer solution (#556454, BD), and then stained with 7‐ADD (#559925, BD) and Annexin V‐PE (#556422, BD) in the dark for 15 min. Finally, 400 μl of 1×BD binding buffer solution were added to stop dyeing. The cells were then measured on a Guava easyCyte flow cytometer (Merck, USA)."}, "[7]": {"tested_on": "FGFR1–FGFR3 cell lines", "experiment": "CCK-8 proliferation, cancer cells harboring FGFR aberrations (summary range)", "format": "cell-based", "conditions": "range over cell lines of Table 2; read-out: antiproliferative IC50 values, FGFR1–FGFR3 cell lines", "description": "Cells were seeded in 96‐well plate in complete medium (1000–6000 cells/well) and cultured for overnight. Then the cells were exposed to gradient concentrations (0.0005–10 μM) of compounds. Cell proliferation was analyzed by Cell Counting Kit 8 (CK04, Dojindo Laboratories, Japan) after co‐incubation for a further 72 h. IC50 values were calculated by fitting of concentration–response curves using GraphPad Prism 8.01 software. Each assay was repeated at least three times.\nThe expression and activation levels of FGFR1–4 in these cells were determined via western blot experiments (Figure S1)."}, "[8]": {"biological_target": "T1, FGFR3‐V555 M (Homo sapiens, UniProt P22607, V555M)", "T1 construct": "purchased KINOMEscan™ (commercial assay)", "T1 sequence (P22607 23-806 V555M)": "as the sequence (P22607 23-806) above, with V533M counted along it", "experiment": "KINOMEscan binding affinity assay"}, "[9]": {"tested_on": "FGFR1‐V561F", "experiment": "Cellular thermal shift assay (CETSA) in Ba/F3‐FGFR1‐V561F cells", "format": "binding", "conditions": "100 nM, 38.0 to 57.8℃", "procedure": "Pairs consisting of one experimental aliquot and one DMSO aliquot were heated from 38.0 to 57.8℃ for 3 min. Then, the samples were exposed to liquid nitrogen for 10 min, and then placed in a water bath at 37℃ for 10 min. After three freeze–thaw cycles, cell lysates were centrifuged at 12000 rpm at 4℃ for 10 min, and then boiled for 15 min. The soluble supernatant was used for WB analysis.\nDrug‐treated cells were heated at gradient temperature from 38℃ to 57.8℃ for 3 min and then lysed, centrifuged to separate the soluble fractions from precipitates. The soluble fractions were analyzed by immunoblotting. Relative band intensities were plotted as a function of temperature followed a sigmoidal trend."}, "[10]": {"tested_on": "Ba/F3‐FGFR1", "experiment": "Cell cycle analysis by flow cytometry (propidium iodide)", "format": "cell-based", "conditions": "Ba/F3‐FGFR1, 100 nM, 24 h", "description": "About 6 × 10^5 cells were re‐suspended in 150 μl of BD Cytofix/Cytoperm buffer solution I for 10 min at room temperature. The cell suspensions were added with BD Cytofix/Cytoperm buffer solution II and incubated with another 10 min at room temperature, and then incubated with 200 μl of propidium iodide buffer (0.1 mg/ml) in the dark for 10 min at 4℃. Assays were performed with a Guava easyCyte flow cytometer (Merck, USA)."}, "[11]": {"biological_target": "T2, FGFR3‐K650E (Homo sapiens, UniProt P22607, K650E)", "T2 construct": "purchased KINOMEscan™ (commercial assay)", "T2 sequence (P22607 23-806 K650E)": "as the sequence (P22607 23-806) above, with K628E counted along it", "experiment": "KINOMEscan binding affinity assay"}, "[12]": {"tested_on": "FGFR1 signal pathway in H1581", "experiment": "Western blot of FGFR1 signal pathway", "format": "cell-based", "description": "as §1, §2"}, "[13]": {"tested_on": "FGFR1 signal pathway in Ba/F3‐FGFR1", "experiment": "Western blot of FGFR1 signal pathway", "format": "cell-based", "conditions": "Ba/F3‐FGFR1, 4 h, 3.7 nM to 300 nM", "description": "as §1, §2"}, "[14]": {"tested_on": "FGFR1 signal pathway in A204", "experiment": "Western blot of FGFR1 signal pathway", "format": "cell-based", "description": "as §1, §2"}, "[15]": {"tested_on": "FGFR1 signal pathway in A549", "experiment": "Western blot of FGFR1 signal pathway", "format": "cell-based", "description": "as §1, §2"}, "[16]": {"biological_target": "T3, FGFR1 (Homo sapiens, UniProt P11362)", "T3 construct": "purchased Invitrogen (Waltham, MA, USA)", "T3 sequence (P11362 22-822)": "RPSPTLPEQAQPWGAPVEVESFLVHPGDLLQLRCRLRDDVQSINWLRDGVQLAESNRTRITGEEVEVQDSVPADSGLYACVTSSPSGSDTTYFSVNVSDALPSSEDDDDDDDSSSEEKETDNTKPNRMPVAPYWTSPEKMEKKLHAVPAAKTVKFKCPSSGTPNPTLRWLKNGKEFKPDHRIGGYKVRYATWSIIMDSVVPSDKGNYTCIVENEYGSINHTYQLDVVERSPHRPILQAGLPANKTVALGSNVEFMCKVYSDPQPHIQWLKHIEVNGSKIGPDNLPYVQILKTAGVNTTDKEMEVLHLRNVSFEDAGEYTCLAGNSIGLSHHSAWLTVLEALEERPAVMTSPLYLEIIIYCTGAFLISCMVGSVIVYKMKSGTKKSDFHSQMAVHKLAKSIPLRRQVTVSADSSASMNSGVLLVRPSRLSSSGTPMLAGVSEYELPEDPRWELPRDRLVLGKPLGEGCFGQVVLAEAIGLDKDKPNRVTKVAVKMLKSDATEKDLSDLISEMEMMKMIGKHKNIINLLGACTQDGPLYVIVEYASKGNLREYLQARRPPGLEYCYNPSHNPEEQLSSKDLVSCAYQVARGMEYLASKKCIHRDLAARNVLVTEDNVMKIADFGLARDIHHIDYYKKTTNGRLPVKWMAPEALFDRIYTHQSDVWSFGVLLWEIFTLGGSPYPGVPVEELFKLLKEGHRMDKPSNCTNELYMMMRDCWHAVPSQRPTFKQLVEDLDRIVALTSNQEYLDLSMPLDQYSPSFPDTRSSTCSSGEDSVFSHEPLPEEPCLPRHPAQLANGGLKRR", "experiment": "KINOMEscan binding affinity assay"}},
  "data": [
    {"smiles": "CCN1CCN(c2ccc(Nc3cc(N(C)C(=O)Nc4c(Cl)c(OC)cc(OC)c4Cl)ncn3)cc2)CC1", "note": "[BGJ398]", "values": [
      {"measurement": "activation of FGFR1 and its signal pathway", "setting": "[1]", "value": "no effects"}
    ]},
    {"smiles": "Cc1ccc(C(=O)Nc2ccc(CN3CCN(C)CC3)c(C(F)(F)F)c2)cc1C#Cc1cnc2[nH]ncc2c1", "note": "[GZD824]", "values": [
      {"measurement": "tumor growth inhibition (TGI)", "setting": "[2]", "value": 49.8, "unit": "%"},
      {"measurement": "Kd", "setting": "[3]", "value": "19 ± 1.4", "unit": "nM"},
      {"measurement": "Kd", "setting": "[4]", "value": "17 ± 1.4", "unit": "nM"},
      {"measurement": "dose showing obvious degradation of FGFR1", "setting": "[5]", "value": "≥ 33.3", "unit": "nM"},
      {"measurement": "apoptosis", "setting": "[6]", "value": 65.73, "unit": "%"},
      {"measurement": "IC50", "setting": "[7]", "value": "4 to 91", "unit": "nM"},
      {"measurement": "Kd", "setting": "[8]", "value": "19.5 ± 4.9", "unit": "nM"},
      {"measurement": "thermal stability of FGFR1‐V561F protein (CETSA)", "setting": "[9]", "value": "significantly enhanced"},
      {"measurement": "G0/G1 phase", "setting": "[10]", "value": 70.88, "unit": "%"},
      {"measurement": "Kd", "setting": "[11]", "value": 11, "unit": "nM"},
      {"measurement": "dose with obvious inhibition of pFRS2 and pERK", "setting": "[12]; H1581", "value": "≥ 3.7", "unit": "nM"},
      {"measurement": "total level of FGFR1 protein expression", "setting": "[12]; H1581", "value": "no obvious effect"},
      {"measurement": "FGFR1 phosphorylation, downstream FRS2 and ERK1/2", "setting": "[12]; H1581, 4 h, 3.7 nM to 300 nM", "value": "dose‐dependent inhibition"},
      {"measurement": "effect on pAKT", "setting": "[12]; H1581, even at 300 nM", "value": "no effect"},
      {"measurement": "FGFR1 phosphorylation, downstream FRS2 and ERK1/2", "setting": "[13]", "value": "dose‐dependent inhibition"},
      {"measurement": "dose with obvious inhibition of pFRS2 and pERK", "setting": "[14]; A204", "value": "≥ 3.7", "unit": "nM"},
      {"measurement": "total level of FGFR1 protein expression", "setting": "[14]; A204", "value": "no obvious effect"},
      {"measurement": "effect on pAKT", "setting": "[14]; A204, even at 300 nM", "value": "no effect"},
      {"measurement": "total level of FGFR1 protein expression", "setting": "[15]; A549", "value": "no obvious effect"},
      {"measurement": "effects on FGFR1 downstream signal pathway", "setting": "[15]; A549, negative control", "value": "very weak"},
      {"measurement": "Kd", "setting": "[16]", "value": "7.3 ± 0.3", "unit": "nM"}
    ]}
  ]
}
